Columns and labels:
[1] = molecular target: T1, Steroid 17-alpha-hydroxylase/17,20 lyase (Homo sapiens, UniProt P05093); experiment: Inhibition of human CYP17 expressed in Escherichia coli co-expressed with NADPH-P450 reductase at 0.2 uM
T1 sequence (P05093 whole entry): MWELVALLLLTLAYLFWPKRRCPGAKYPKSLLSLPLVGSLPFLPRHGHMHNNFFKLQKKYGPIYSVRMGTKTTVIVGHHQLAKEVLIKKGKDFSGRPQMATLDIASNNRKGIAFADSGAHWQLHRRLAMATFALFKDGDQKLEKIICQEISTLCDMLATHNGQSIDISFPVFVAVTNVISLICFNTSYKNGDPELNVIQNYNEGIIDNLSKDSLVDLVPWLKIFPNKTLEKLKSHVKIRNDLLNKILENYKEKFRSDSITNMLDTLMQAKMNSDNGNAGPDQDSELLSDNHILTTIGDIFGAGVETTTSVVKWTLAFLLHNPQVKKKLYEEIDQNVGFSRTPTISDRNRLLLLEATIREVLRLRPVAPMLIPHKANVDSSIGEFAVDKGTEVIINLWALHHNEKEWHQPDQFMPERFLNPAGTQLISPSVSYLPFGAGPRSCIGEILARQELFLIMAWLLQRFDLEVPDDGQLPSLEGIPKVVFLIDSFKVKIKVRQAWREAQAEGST

[2] = molecular target: T1, Steroid 17-alpha-hydroxylase/17,20 lyase; experiment: Inhibition of human CYP17 expressed in Escherichia coli co-expressed with NADPH-P450 reductase at 2 uM
[3] = molecular target: T1, Steroid 17-alpha-hydroxylase/17,20 lyase; experiment: Inhibition of human CYP17 expressed in Escherichia coli co-expressed with NADPH-P450 reductase
[4] = molecular target: T2, CYP3A4 (Homo sapiens, UniProt P08684); experiment: Inhibition of recombinant CYP3A4 at 1 uM; assay type: ADME
T2 sequence (P08684 whole entry): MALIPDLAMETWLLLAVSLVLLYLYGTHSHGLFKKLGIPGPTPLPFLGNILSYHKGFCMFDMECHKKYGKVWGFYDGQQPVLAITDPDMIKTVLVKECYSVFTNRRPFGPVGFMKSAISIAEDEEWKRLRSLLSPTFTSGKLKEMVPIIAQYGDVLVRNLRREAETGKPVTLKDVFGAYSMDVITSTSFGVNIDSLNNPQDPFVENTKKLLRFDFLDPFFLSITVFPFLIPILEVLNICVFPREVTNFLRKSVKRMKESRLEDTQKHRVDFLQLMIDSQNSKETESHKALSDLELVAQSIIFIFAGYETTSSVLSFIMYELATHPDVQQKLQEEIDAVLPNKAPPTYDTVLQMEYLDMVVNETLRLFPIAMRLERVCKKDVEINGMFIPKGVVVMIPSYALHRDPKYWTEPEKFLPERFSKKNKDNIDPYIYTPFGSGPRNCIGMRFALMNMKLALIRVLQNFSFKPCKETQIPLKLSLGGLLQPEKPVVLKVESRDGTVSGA

[5] = molecular target: T2, CYP3A4; experiment: Inhibition of recombinant CYP3A4 at 10 uM; assay type: ADME
[6] = AUC (0 to infinity) in Wistar rat at 50 mg/kg, po; assay type: ADME, organism-based; parameters: time infinity, dose 50 mg/kg, route oral; conditions: plasma
[7] = molecular target: CYP2C19 (Homo sapiens, UniProt P33261); experiment: Inhibition of recombinant CYP2C19 at 10 uM; assay type: ADME
Chain of CYP2C19 (P33261 whole entry): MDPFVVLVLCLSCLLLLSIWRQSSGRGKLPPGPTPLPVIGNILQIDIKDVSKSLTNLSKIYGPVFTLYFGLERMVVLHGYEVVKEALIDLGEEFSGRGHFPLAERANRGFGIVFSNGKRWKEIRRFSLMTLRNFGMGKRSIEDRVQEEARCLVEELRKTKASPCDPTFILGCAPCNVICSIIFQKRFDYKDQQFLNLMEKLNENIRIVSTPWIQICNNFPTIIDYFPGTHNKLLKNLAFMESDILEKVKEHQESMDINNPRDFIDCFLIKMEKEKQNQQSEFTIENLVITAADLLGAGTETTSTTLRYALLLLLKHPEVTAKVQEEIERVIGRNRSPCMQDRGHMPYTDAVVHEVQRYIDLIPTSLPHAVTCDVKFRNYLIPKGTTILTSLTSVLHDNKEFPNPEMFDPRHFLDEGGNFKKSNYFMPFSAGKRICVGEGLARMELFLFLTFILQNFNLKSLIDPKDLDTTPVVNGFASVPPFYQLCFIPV

[8] = Cmax in Wistar rat at 50 mg/kg, po; assay type: ADME, organism-based; parameters: dose 50 mg/kg, route oral; conditions: in vivo
[9] = molecular target: T3, Steroid 17-alpha-hydroxylase/17,20 lyase (Rattus norvegicus, UniProt P11715); experiment: Inhibition of Sprague-Dawley rat testicular CYP17
T3 sequence (P11715 whole entry): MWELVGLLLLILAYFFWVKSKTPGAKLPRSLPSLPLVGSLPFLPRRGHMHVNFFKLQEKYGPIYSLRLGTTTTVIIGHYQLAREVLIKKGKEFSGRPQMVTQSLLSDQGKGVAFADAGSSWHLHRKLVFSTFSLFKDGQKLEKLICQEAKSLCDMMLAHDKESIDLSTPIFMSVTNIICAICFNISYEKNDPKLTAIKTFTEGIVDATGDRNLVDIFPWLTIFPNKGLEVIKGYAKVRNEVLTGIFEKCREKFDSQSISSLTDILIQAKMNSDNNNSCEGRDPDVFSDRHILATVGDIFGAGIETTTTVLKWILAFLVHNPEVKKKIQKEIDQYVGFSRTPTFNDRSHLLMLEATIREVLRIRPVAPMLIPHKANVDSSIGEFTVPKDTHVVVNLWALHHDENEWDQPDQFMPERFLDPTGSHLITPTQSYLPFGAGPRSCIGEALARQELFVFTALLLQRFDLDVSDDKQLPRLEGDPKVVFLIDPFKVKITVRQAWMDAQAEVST

[10] = Total body clearance in Wistar rat at 50 mg/kg, po; assay type: ADME, organism-based; parameters: dose 50 mg/kg, route oral; conditions: in vivo
[11] = Tmax in Wistar rat at 50 mg/kg, po; assay type: ADME, organism-based; parameters: dose 50 mg/kg, route oral; conditions: in vivo
[12] = Terminal half life in Wistar rat plasma at 50 mg/kg, po; assay type: ADME, organism-based; parameters: dose 50 mg/kg, route oral
[13] = molecular target: T4, CYP2D6 (Homo sapiens, UniProt P10635); experiment: Inhibition of recombinant CYP2D6 at 1 uM; assay type: ADME
T4 sequence (P10635 whole entry): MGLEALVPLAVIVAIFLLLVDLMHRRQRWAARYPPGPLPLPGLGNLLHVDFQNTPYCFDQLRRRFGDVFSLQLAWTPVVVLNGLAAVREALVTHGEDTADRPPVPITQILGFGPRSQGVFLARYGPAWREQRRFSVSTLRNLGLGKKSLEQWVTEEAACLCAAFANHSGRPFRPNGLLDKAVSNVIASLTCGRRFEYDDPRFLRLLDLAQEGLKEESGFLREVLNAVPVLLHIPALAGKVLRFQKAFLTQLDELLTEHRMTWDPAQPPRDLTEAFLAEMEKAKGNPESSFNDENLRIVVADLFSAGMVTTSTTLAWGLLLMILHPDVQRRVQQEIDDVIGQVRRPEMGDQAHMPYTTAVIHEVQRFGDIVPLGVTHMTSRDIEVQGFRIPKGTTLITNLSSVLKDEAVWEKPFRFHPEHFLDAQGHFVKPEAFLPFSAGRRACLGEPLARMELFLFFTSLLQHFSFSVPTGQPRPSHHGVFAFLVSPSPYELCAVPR

[14] = molecular target: T5, CYP2B6 (Homo sapiens, UniProt P20813); experiment: Inhibition of recombinant CYP2B6 at 1 uM; assay type: ADME
T5 sequence (P20813 whole entry): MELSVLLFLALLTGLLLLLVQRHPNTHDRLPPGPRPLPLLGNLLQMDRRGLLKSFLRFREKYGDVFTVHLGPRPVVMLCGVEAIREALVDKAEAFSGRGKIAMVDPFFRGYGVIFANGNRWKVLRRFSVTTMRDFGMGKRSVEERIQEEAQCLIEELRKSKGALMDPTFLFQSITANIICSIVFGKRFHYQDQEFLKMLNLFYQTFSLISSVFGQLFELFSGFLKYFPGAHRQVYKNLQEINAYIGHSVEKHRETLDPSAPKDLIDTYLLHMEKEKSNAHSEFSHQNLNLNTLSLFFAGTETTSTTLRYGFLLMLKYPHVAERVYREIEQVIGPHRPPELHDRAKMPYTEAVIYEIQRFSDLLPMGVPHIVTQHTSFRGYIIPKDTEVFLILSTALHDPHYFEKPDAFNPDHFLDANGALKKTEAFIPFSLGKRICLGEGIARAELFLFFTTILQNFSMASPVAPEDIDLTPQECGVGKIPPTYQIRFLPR

[15] = molecular target: T4, CYP2D6; experiment: Inhibition of recombinant CYP2D6 at 10 uM; assay type: ADME
[16] = molecular target: T5, CYP2B6; experiment: Inhibition of recombinant CYP2B6 at 10 uM; assay type: ADME

Row | inhibition at 0.2 µM [1] [%] | inhibition at 2 µM [2] [%] | Compound | also measured
1 | 0 | 0 | Fc1ccc(-c2ccc(Cn3ccnc3)cn2)cc1F | –
2 | 41 | 92 | CCC(c1ccc(-c2cscc2C)cc1F)n1ccnc1 (stereo unspecified) | IC50 [3]: 0.236 µM; inhibition at 1 µM [4]: 88%; inhibition at 10 µM [5]: 97%
3 | 0 | 27 | Cc1cscc1-c1ccc(Cn2ccnc2)cc1 | –
4 | 0 | 20 | Fc1ccc(-c2csc(Cn3ccnc3)c2)cc1 | –
5 | 2 | 3 | CCC(c1ccc(-c2ccc(SC)s2)cc1)n1ccnc1 (stereo unspecified) | –

The remaining lines, values behind:

Row | Compound | inhibition at 0.2 µM [1] [%] | inhibition at 2 µM [2] [%] | also measured
6 | c1ccc(-c2csc(Cn3ccnc3)c2)cc1 | 0 | 21 | –
7 | COc1ccc(-c2ccc(Cn3ccnc3)cn2)cc1OC | 1 | 2 | –
8 | Nc1cccc(-c2ccc(Cn3ccnc3)cn2)c1 | 2 | 3 | –
9 | COc1cccc(-c2ccc(Cn3ccnc3)cn2)c1 | 0 | 1 | –
10 | C[C@]12CC[C@H](O)CC1=CC[C@@H]1[C@@H]2CC[C@]2(C)C(c3cccnc3)=CC[C@@H]12 [ABIRATERONE] | – | – | AUC(0-inf) [6]: 4020 ng·h/mL; inhibition at 10 µM [7]: 21%; Cmax [8]: 592 ng/mL; inhibition at 1 µM [4]: 4%; IC50 [9]: 0.22 µM; CL/F [10]: 187 mL/min/kg; inhibition at 10 µM [5]: 25%; Tmax [11]: 2 h; half-life [12]: 1.6 h; inhibition at 1 µM [13]: 7%; inhibition at 1 µM [14]: 2%; inhibition at 10 µM [15]: 7%; inhibition at 10 µM [16]: 11%
11 | Fc1ccc(-c2ccc(Cn3ccnc3)cn2)cc1 | 5 | 5 | –
12 | c1cn(Cc2ccc(-c3ccoc3)cc2)cn1 | 3 | 29 | –
13 | COc1ccc(-c2ccc(Cn3ccnc3)cn2)cc1 | 0 | 0 | –
14 | CC(C)C(O)(c1ccc(-c2ccsc2)cc1)c1c[nH]cn1 (stereo unspecified) | 7 | 49 | –
15 | CC(c1ccc(N2CCOCC2)cc1)n1ccnc1 (stereo unspecified) | 5 | 12 | –
16 | Fc1ccc(-c2ccc(Cn3ccnc3)cc2)cn1 | 4 | 13 | –

Source: ChEMBL document CHEMBL1141584, “Synthesis, biological evaluation and molecular modelling studies of methyleneimidazole substituted biaryls as inhibitors of human 17alpha-hydroxylase-17,20-lyase (CYP17). Part I: Heterocyclic modifications of the core structure” (Bioorg Med Chem, 2008)
